Laboratory results from patent US20250084061A1, “SULFONYL FUNCTIONAL COMPOUND, METHODS AND USES THEREOF” (Hubei Biopesticide Engineering Research Centre, priority 2023, published 2025).
Like-named read-outs stand apart in the source and are kept apart here.

Legend:
Fusarium culmorum = test: Bactericidal (fungicidal) activity by microdilution; type: cell-based
[1] = tested on: Colletotrichum gloeobosporioids; test: as above; type: cell-based
Magnaporthe oryzae = type: cell-based
Thanatephorus cucumeris = test: Bactericidal (fungicidal) activity by microdilution; type: cell-based
Rhizoctonia solani = test: as above; type: cell-based
Septoria nodorum Berk. = test: as above; type: cell-based
Alternaria kikuchiana = test: as above; type: cell-based
Leptosphaeria biglobosa = test: as above; type: cell-based
[2] = tested on: Verticillium dahliae.kieb.; test: as above; type: cell-based
[3] = tested on: Fusarium oxysporum f. sp. Niveum; test: as above; type: cell-based
Pythium aphanidermatum = test: as above; type: cell-based
Plutella xylostella = test: Insecticidal activity, artificial feed surface coating method; type: in vivo; details: Plutella xylostella, read-out: Insecticidal activity (mortality rate grade) Plutella xylostella
Summary of the method: (§1)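 Artificial diet in 24-well plates, surface-coated with test solution at 500, 250 and 125 mg/L. Each concentration was tested in two replicates (Rep1, Rep2).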

Heliothis armigera = test: as above; type: in vivo; details: Helicoverpa armigera, read-out: Insecticidal activity (mortality rate grade) Heliothis armigera
Summary of the method: as §1

Botrytis cinerea = test: Bactericidal (fungicidal) activity by microdilution; type: cell-based
Aphiscraccivora = test: Insecticidal activity, dipping method; type: in vivo
Summary of the method: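 Aphids tested by dipping in ethanol-dissolved compound diluted to 500, 250 or 125 mg/L with 0.1 mL/L Tween-80, two replicates plus blank control. Mortality scored on a 0/3/5/7/9 scale for 0–30, 30–50, 50–70, 70–90 and 90–100%.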

[4] = tested on: Corynespora leaf spot of tomato; test: Bactericidal (fungicidal) activity by microdilution; type: cell-based

Structure (SMILES): COC(=O)Nc1nc2ccccc2n1CCCCS(=O)(=O)O [III-3]
- Fungicidal activity (antibacterial rate grade) Fusarium culmorum (Fusarium culmorum; 12.5 mg/L): 7 (The antibacterial rate of 70˜90% could be set as 7 if the target has small amounts of growth)
- Fungicidal activity (antibacterial rate grade) Fusarium culmorum (Fusarium culmorum; 25 mg/L): 9 (The antibacterial rate of 90˜100% could be set as 9 if the target has totally no growth)
- Fungicidal activity (antibacterial rate grade) Fusarium culmorum (Fusarium culmorum; 50 mg/L): 9 (The antibacterial rate of 90˜100% could be set as 9 if the target has totally no growth)
- Fungicidal activity (antibacterial rate grade) Fusarium culmorum (Fusarium culmorum; 100 mg/L): 9 (The antibacterial rate of 90˜100% could be set as 9 if the target has totally no growth)
- Fungicidal activity (antibacterial rate grade) Colletotrichum gloeobosporioids ([1]; 12.5 mg/L): 9 (The antibacterial rate of 90˜100% could be set as 9 if the target has totally no growth)
- Fungicidal activity (antibacterial rate grade) Colletotrichum gloeobosporioids ([1]; 25 mg/L): 9 (The antibacterial rate of 90˜100% could be set as 9 if the target has totally no growth)
- Fungicidal activity (antibacterial rate grade) Colletotrichum gloeobosporioids ([1]; 50 mg/L): 9 (The antibacterial rate of 90˜100% could be set as 9 if the target has totally no growth)
- Fungicidal activity (antibacterial rate grade) Colletotrichum gloeobosporioids ([1]; 100 mg/L): 9 (The antibacterial rate of 90˜100% could be set as 9 if the target has totally no growth)
- Fungicidal activity (antibacterial rate grade) Magnaporthe oryzae (Magnaporthe oryzae; 12.5 mg/L): 9 (The antibacterial rate of 90˜100% could be set as 9 if the target has totally no growth)
- Fungicidal activity (antibacterial rate grade) Magnaporthe oryzae (Magnaporthe oryzae; 25 mg/L): 9 (The antibacterial rate of 90˜100% could be set as 9 if the target has totally no growth)
- Fungicidal activity (antibacterial rate grade) Magnaporthe oryzae (Magnaporthe oryzae; 50 mg/L): 9 (The antibacterial rate of 90˜100% could be set as 9 if the target has totally no growth)
- Fungicidal activity (antibacterial rate grade) Magnaporthe oryzae (Magnaporthe oryzae; 100 mg/L): 9 (The antibacterial rate of 90˜100% could be set as 9 if the target has totally no growth)
- Fungicidal activity (antibacterial rate grade) Thanatephorus cucumeris (Thanatephorus cucumeris; 12.5 mg/L): 9 (The antibacterial rate of 90˜100% could be set as 9 if the target has totally no growth)
- Fungicidal activity (antibacterial rate grade) Thanatephorus cucumeris (Thanatephorus cucumeris; 25 mg/L): 9 (The antibacterial rate of 90˜100% could be set as 9 if the target has totally no growth)
- Fungicidal activity (antibacterial rate grade) Thanatephorus cucumeris (Thanatephorus cucumeris; 50 mg/L): 9 (The antibacterial rate of 90˜100% could be set as 9 if the target has totally no growth)
- Fungicidal activity (antibacterial rate grade) Thanatephorus cucumeris (Thanatephorus cucumeris; 100 mg/L): 9 (The antibacterial rate of 90˜100% could be set as 9 if the target has totally no growth)
- Fungicidal activity (antibacterial rate grade) Rhizoctonia solani (Rhizoctonia solani; 12.5 mg/L): 3 (The antibacterial rate of 0˜30% could be set as 3 if the growth of the target is normal and consistent with that of the blank control)
- Fungicidal activity (antibacterial rate grade) Rhizoctonia solani (Rhizoctonia solani; 25 mg/L): 3 (The antibacterial rate of 0˜30% could be set as 3 if the growth of the target is normal and consistent with that of the blank control)
- Fungicidal activity (antibacterial rate grade) Rhizoctonia solani (Rhizoctonia solani; 50 mg/L): 3 (The antibacterial rate of 0˜30% could be set as 3 if the growth of the target is normal and consistent with that of the blank control)
- Fungicidal activity (antibacterial rate grade) Rhizoctonia solani (Rhizoctonia solani; 100 mg/L): 3 (The antibacterial rate of 0˜30% could be set as 3 if the growth of the target is normal and consistent with that of the blank control)
- Fungicidal activity (antibacterial rate grade) Septoria nodorum Berk. (Septoria nodorum Berk.; 12.5 mg/L): 9 (The antibacterial rate of 90˜100% could be set as 9 if the target has totally no growth)
- Fungicidal activity (antibacterial rate grade) Septoria nodorum Berk. (Septoria nodorum Berk.; 25 mg/L): 9 (The antibacterial rate of 90˜100% could be set as 9 if the target has totally no growth)
- Fungicidal activity (antibacterial rate grade) Septoria nodorum Berk. (Septoria nodorum Berk.; 50 mg/L): 9 (The antibacterial rate of 90˜100% could be set as 9 if the target has totally no growth)
- Fungicidal activity (antibacterial rate grade) Septoria nodorum Berk. (Septoria nodorum Berk.; 100 mg/L): 9 (The antibacterial rate of 90˜100% could be set as 9 if the target has totally no growth)
- Fungicidal activity (antibacterial rate grade) Alternaria kikuchiana (Alternaria kikuchiana; 12.5 mg/L): 3 (The antibacterial rate of 0˜30% could be set as 3 if the growth of the target is normal and consistent with that of the blank control)
- Fungicidal activity (antibacterial rate grade) Alternaria kikuchiana (Alternaria kikuchiana; 25 mg/L): 3 (The antibacterial rate of 0˜30% could be set as 3 if the growth of the target is normal and consistent with that of the blank control)
- Fungicidal activity (antibacterial rate grade) Alternaria kikuchiana (Alternaria kikuchiana; 50 mg/L): 3 (The antibacterial rate of 0˜30% could be set as 3 if the growth of the target is normal and consistent with that of the blank control)
- Fungicidal activity (antibacterial rate grade) Alternaria kikuchiana (Alternaria kikuchiana; 100 mg/L): 3 (The antibacterial rate of 0˜30% could be set as 3 if the growth of the target is normal and consistent with that of the blank control)
- Fungicidal activity (antibacterial rate grade) Leptosphaeria biglobosa (Leptosphaeria biglobosa; 12.5 mg/L): 9 (The antibacterial rate of 90˜100% could be set as 9 if the target has totally no growth)
- Fungicidal activity (antibacterial rate grade) Leptosphaeria biglobosa (Leptosphaeria biglobosa; 25 mg/L): 9 (The antibacterial rate of 90˜100% could be set as 9 if the target has totally no growth)
- Fungicidal activity (antibacterial rate grade) Leptosphaeria biglobosa (Leptosphaeria biglobosa; 50 mg/L): 9 (The antibacterial rate of 90˜100% could be set as 9 if the target has totally no growth)
- Fungicidal activity (antibacterial rate grade) Leptosphaeria biglobosa (Leptosphaeria biglobosa; 100 mg/L): 9 (The antibacterial rate of 90˜100% could be set as 9 if the target has totally no growth)
- Fungicidal activity (antibacterial rate grade) Verticillium dahliae. kieb. ([2]; 12.5 mg/L): 9 (The antibacterial rate of 90˜100% could be set as 9 if the target has totally no growth)
- Fungicidal activity (antibacterial rate grade) Verticillium dahliae. kieb. ([2]; 25 mg/L): 9 (The antibacterial rate of 90˜100% could be set as 9 if the target has totally no growth)
- Fungicidal activity (antibacterial rate grade) Verticillium dahliae. kieb. ([2]; 50 mg/L): 9 (The antibacterial rate of 90˜100% could be set as 9 if the target has totally no growth)
- Fungicidal activity (antibacterial rate grade) Verticillium dahliae. kieb. ([2]; 100 mg/L): 9 (The antibacterial rate of 90˜100% could be set as 9 if the target has totally no growth)
- Fungicidal activity (antibacterial rate grade) Fusarium oxysporum f. sp. Niveum ([3]; 12.5 mg/L): 9 (The antibacterial rate of 90˜100% could be set as 9 if the target has totally no growth)
- Fungicidal activity (antibacterial rate grade) Fusarium oxysporum f. sp. Niveum ([3]; 25 mg/L): 9 (The antibacterial rate of 90˜100% could be set as 9 if the target has totally no growth)
- Fungicidal activity (antibacterial rate grade) Fusarium oxysporum f. sp. Niveum ([3]; 50 mg/L): 9 (The antibacterial rate of 90˜100% could be set as 9 if the target has totally no growth)
- Fungicidal activity (antibacterial rate grade) Fusarium oxysporum f. sp. Niveum ([3]; 100 mg/L): 9 (The antibacterial rate of 90˜100% could be set as 9 if the target has totally no growth)
- Fungicidal activity (antibacterial rate grade) Pythium aphanidematum (Pythium aphanidermatum; 12.5 mg/L): 3 (The antibacterial rate of 0˜30% could be set as 3 if the growth of the target is normal and consistent with that of the blank control)
- Fungicidal activity (antibacterial rate grade) Pythium aphanidematum (Pythium aphanidermatum; 25 mg/L): 3 (The antibacterial rate of 0˜30% could be set as 3 if the growth of the target is normal and consistent with that of the blank control)
- Fungicidal activity (antibacterial rate grade) Pythium aphanidematum (Pythium aphanidermatum; 50 mg/L): 3 (The antibacterial rate of 0˜30% could be set as 3 if the growth of the target is normal and consistent with that of the blank control)
- Fungicidal activity (antibacterial rate grade) Pythium aphanidematum (Pythium aphanidermatum; 100 mg/L): 3 (The antibacterial rate of 0˜30% could be set as 3 if the growth of the target is normal and consistent with that of the blank control)
- mortality at 125 µg/mL (Plutella xylostella; 125 mg/L test solution): 0 to 30%
- mortality at 250 µg/mL (Plutella xylostella; 250 mg/L test solution): 0 to 30%
- mortality at 500 µg/mL (Plutella xylostella; 500 mg/L test solution): 0 to 30%
- mortality at 125 µg/mL (Heliothis armigera; 125 mg/L test solution): 0 to 30%
- mortality at 250 µg/mL (Heliothis armigera; 250 mg/L test solution): 0 to 30%
- mortality at 500 µg/mL (Heliothis armigera; 500 mg/L test solution): 0 to 30%
- Fungicidal activity (antibacterial rate grade) Botrytis cinerea (Botrytis cinerea; 12.5 mg/L): 3 (The antibacterial rate of 0˜30% could be set as 3 if the growth of the target is normal and consistent with that of the blank control)
- Fungicidal activity (antibacterial rate grade) Botrytis cinerea (Botrytis cinerea; 25 mg/L): 3 (The antibacterial rate of 0˜30% could be set as 3 if the growth of the target is normal and consistent with that of the blank control)
- Fungicidal activity (antibacterial rate grade) Botrytis cinerea (Botrytis cinerea; 50 mg/L): 3 (The antibacterial rate of 0˜30% could be set as 3 if the growth of the target is normal and consistent with that of the blank control)
- Fungicidal activity (antibacterial rate grade) Botrytis cinerea (Botrytis cinerea; 100 mg/L): 3 (The antibacterial rate of 0˜30% could be set as 3 if the growth of the target is normal and consistent with that of the blank control)
- Insecticidal activity (mortality rate grade) Aphiscraccivora (Aphiscraccivora; 125 mg/L test solution): 0 (mortality rate of 0˜30%)
- Insecticidal activity (mortality rate grade) Aphiscraccivora (Aphiscraccivora; 250 mg/L test solution): 0 (mortality rate of 0˜30%)
- Insecticidal activity (mortality rate grade) Aphiscraccivora (Aphiscraccivora; 500 mg/L test solution): 0 (mortality rate of 0˜30%)
- Fungicidal activity (antibacterial rate grade) Corynespora leaf spot of tomato ([4]; 12.5 mg/L): 3 (The antibacterial rate of 0˜30% could be set as 3 if the growth of the target is normal and consistent with that of the blank control)
- Fungicidal activity (antibacterial rate grade) Corynespora leaf spot of tomato ([4]; 25 mg/L): 3 (The antibacterial rate of 0˜30% could be set as 3 if the growth of the target is normal and consistent with that of the blank control)
- Fungicidal activity (antibacterial rate grade) Corynespora leaf spot of tomato ([4]; 50 mg/L): 7 (The antibacterial rate of 70˜90% could be set as 7 if the target has small amounts of growth)
- Fungicidal activity (antibacterial rate grade) Corynespora leaf spot of tomato ([4]; 100 mg/L): 7 (The antibacterial rate of 70˜90% could be set as 7 if the target has small amounts of growth)
